Source: patent US20220304999A1, “REBAMIPIDE FOR USE IN PREVENTION AND/OR TREATMENT OF ARTERIAL STIFFNESS” (SQUARE POWER LTD., priority 2019, published 2022)

Assay: Carotid to femoral pulse wave velocity (cfPWV) study in patients suffering from arterial stiffness
Format: in vivo, human
Source text: Aging of cardiovascular system is associated with worsening of arterial cushion function resulting in higher pulse pressure (systolic-diastolic amplitude). Pulse wave velocity (PWV), i.e. velocity at which the blood pressure pulse propagates through the circulatory system, is the gold standard method for arterial stiffness quantification. It can be readily measured non-invasively in humans, is highly reproducible, and predicts future cardiovascular events and all-cause mortality independent of conventional cardiovascular risk factors.
Pulse wave travels along the arteries at a velocity rate, which varies according to wall elasticity: the less elastic the wall, the higher the velocity of PW propagation. PWV measures the time of travel of the pressure wave over a known distance and is calculated as the distance between the two positions of the pulse transducer divided by the time delay measured between pressure upstroke at each site.
To study the effect of rebamipide on arteries, a small study on patients suffering from arterial stiffness was performed. […] Carotid to femoral PWV (cfPWV) was measured in both groups at 0, 3, 6, 9 and 12 months.

## O=C(NC(Cc1cc(=O)[nH]c2ccccc12)C(=O)O)c1ccc(Cl)cc1 (centres unmarked) [rebamipide, 2-[(4-chlorobenzoyl)amino]-3-(2-oxo-1H-quinolin-4-yl)propanoic acid]
Patients with PWV above normal for age, no atherosclerosis or hyperlipidemia, rebamipide 200 mg three times a day for 12 months vs placebo, cfPWV at 0, 3, 6, 9, 12 months
  arterial stiffness (carotid to femoral PWV): gradually decreasing
Rebamipide 200 mg three times a day vs placebo, 12 months
  difference in arterial stiffness between rebamipide and placebo groups: reached statistical significance
